According to BindingDB's records for patent US12226414 (Suzhou Zanrong Pharma, 2025):
pIC50: −log10 of the molar value.

Target: Serine/threonine-protein kinase ATR (Homo sapiens, UniProt Q13535)
Assay: ATR Biochemical Potency Assay
Method: ATR enzyme was made by ChemPartner (batch: CP-ATR-20161102-M2). 2× enzyme solutions were prepared in 1× kinase base buffer. 10 μl of 2× enzyme solution (final concentration: 2.5 nM) was added to each well of the 384-well assay plate containing 60 nl compound in each well. The plate was incubated at room temperature for 10 minutes. 2× peptide solutions were prepared with FAM-labeled peptide and ATP in the 1× kinase base buffer. 10 μl of 2× peptide solution was added to each well of the 384-well assay plate, which was incubated at 28° C. for 240 min. 40 μl of stop buffer was added to stop reaction. Data were collected by Caliper.

Sequence of Serine/threonine-protein kinase ATR (Q13535 whole entry): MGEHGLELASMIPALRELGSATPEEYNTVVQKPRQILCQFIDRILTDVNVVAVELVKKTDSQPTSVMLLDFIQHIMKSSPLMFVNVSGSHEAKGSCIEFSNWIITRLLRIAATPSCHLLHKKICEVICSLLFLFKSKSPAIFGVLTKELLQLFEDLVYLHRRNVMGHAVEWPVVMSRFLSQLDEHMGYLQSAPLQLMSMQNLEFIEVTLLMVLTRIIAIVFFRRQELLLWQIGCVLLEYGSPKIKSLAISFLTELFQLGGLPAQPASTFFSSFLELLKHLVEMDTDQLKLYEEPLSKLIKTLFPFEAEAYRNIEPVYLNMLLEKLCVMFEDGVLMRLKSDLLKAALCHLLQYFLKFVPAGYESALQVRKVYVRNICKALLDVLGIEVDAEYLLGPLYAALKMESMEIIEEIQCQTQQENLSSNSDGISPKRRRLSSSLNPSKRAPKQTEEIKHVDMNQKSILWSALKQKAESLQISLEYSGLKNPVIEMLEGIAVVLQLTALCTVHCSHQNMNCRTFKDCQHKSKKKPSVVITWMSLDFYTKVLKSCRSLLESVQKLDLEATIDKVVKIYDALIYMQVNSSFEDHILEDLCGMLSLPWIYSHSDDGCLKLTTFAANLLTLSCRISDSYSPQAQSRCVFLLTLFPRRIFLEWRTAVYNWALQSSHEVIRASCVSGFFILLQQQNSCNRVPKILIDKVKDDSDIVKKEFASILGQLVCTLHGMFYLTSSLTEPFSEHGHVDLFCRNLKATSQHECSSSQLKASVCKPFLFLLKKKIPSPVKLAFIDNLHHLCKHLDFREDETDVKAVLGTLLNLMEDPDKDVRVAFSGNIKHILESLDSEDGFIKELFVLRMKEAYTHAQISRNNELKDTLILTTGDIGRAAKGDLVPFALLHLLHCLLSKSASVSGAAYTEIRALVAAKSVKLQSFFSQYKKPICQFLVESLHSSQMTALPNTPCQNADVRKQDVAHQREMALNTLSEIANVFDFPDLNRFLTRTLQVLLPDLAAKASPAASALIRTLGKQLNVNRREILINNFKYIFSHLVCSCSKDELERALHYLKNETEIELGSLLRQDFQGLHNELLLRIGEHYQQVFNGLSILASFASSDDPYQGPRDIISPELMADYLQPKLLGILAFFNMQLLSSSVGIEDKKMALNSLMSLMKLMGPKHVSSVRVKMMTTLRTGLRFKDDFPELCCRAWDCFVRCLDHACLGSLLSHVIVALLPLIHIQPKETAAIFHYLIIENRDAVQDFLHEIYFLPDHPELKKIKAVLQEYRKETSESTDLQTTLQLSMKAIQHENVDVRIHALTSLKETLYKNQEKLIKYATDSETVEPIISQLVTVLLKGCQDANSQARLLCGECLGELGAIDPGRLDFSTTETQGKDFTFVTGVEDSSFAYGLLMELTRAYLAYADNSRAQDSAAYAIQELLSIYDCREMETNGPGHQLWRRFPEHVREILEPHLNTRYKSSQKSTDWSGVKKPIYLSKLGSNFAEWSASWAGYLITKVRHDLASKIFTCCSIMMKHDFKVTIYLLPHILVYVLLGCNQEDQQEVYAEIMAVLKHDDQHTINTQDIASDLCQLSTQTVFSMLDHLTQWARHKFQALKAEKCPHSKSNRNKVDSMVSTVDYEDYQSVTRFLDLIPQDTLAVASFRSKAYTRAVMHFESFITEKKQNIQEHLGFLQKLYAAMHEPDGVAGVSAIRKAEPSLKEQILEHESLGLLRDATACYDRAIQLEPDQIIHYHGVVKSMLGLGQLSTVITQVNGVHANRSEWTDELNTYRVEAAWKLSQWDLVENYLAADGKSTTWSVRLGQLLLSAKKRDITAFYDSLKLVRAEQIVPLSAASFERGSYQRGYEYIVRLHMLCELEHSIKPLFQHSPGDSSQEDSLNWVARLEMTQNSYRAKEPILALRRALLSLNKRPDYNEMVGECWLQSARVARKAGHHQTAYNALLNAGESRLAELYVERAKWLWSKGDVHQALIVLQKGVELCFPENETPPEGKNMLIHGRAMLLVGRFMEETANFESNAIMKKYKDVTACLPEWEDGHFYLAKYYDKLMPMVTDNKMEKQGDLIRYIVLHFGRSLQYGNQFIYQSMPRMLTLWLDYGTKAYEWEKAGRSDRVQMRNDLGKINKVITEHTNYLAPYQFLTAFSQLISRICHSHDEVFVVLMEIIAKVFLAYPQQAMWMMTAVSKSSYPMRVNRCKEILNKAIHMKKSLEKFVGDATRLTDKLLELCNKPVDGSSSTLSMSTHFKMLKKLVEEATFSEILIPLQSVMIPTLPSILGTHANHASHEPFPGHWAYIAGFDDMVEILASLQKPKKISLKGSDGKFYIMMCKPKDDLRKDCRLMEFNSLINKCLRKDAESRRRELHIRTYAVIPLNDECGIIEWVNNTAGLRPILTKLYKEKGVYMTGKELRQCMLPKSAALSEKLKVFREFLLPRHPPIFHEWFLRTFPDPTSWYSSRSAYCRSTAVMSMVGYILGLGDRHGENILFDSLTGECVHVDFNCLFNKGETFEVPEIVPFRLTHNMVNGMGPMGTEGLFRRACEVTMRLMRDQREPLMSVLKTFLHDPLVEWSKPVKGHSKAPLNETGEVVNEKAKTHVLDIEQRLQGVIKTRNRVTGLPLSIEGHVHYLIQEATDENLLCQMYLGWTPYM

pIC50	SMILES
< 5.00	CC(C)n1c(=O)n(C)c2nnc3cc(F)c(-c4ccc(OCCCN5CC[C@H](F)C5)nc4)cc3c21 [US12226414, Example 14]
< 5.00	CC(C)n1c(=O)n(C)c2nnc3cc(F)c(-c4ccc(OCCCN5CC[C@@H](F)C5)nc4)cc3c21 [US12226414, Example 15]
